From patent publication US12171756B2, “NLRP3 modulators” (Innate Tumor Immunity, Inc., priority 2017, dated 2024)
Where a name gives a salt, the structure may show the parent alone.

Experiments:
human TLR8 = biological target: T1, human TLR8 (Homo sapiens, UniProt Q9NR97); experiment: In vitro human TLR8 binding reporter assay (HEK-Blue, NF-kB/AP1-inducible SEAP); assay type: cell-based; conditions: HEK-Blue human TLR8 SEAP reporter cells; activity range classes; read-out: TLR8 Agonist EC50
T1 construct: host or cells: human HEK-Blue cells (HEK293-derived) co-expressing TLR8 and an NF-kB/AP1-inducible SEAP reporter
T1 sequence (Q9NR97 27-1041): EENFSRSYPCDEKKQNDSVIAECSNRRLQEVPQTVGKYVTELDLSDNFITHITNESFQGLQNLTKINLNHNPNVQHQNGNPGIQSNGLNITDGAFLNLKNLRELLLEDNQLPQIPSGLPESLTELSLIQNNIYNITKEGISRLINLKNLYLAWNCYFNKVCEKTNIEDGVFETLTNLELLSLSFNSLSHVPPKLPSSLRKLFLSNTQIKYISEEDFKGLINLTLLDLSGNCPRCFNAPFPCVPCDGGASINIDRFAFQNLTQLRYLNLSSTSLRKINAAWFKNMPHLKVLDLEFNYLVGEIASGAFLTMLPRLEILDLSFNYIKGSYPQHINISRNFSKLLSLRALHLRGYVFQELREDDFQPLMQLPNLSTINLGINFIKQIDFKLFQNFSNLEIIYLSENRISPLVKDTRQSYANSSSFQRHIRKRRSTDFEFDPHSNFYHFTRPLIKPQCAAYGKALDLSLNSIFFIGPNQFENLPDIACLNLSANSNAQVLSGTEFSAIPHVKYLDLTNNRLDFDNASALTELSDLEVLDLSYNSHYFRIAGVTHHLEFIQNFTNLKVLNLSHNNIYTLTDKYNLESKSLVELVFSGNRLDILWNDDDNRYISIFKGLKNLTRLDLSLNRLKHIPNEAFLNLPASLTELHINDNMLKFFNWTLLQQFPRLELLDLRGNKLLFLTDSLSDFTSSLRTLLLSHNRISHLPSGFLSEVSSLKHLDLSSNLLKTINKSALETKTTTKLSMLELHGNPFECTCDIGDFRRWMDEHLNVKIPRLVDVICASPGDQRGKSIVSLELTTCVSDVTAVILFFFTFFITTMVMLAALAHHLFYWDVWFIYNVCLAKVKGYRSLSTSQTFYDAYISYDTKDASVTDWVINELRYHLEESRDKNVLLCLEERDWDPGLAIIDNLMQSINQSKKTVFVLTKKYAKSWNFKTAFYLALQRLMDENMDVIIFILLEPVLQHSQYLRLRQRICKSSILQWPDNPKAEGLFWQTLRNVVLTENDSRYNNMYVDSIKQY
Method in brief: (§1)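 EC50s come from NF-kB/AP1-driven SEAP secretion in HEK-Blue cells expressing TLR7 or TLR8, measured with Quanti-Blue after an 18 h compound incubation. Maximal response is defined by a 50 μM reference standard.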

[1] = test system: IL-1β production in PMA-differentiated THP-1 cells; experiment: Measurement of IL-1β production in PMA-differentiated THP-1 cells (ELISA, 4 hours); assay type: cell-based, human; conditions: Homo sapiens, THP-1, human IL-1β production, assayed using one or more of the described procedures, read-out: NLRP3 hIL1B IC50
Method in brief: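 THP-1 cells differentiated with PMA (10 μg/ml, 24 h), replated at 1×10^6 cells/ml in RPMI with 2% FBS and exposed to compounds (e.g. 0.1–100 μM, 1% DMSO final) for 4 hours. IL-1β in cell-free supernatant quantified by ELISA against vehicle control.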

human TLR7 = biological target: T2, human TLR7 (Homo sapiens, UniProt Q9NYK1); experiment: In vitro human TLR7 binding reporter assay (HEK-Blue, NF-kB/AP1-inducible SEAP); assay type: cell-based; conditions: HEK-Blue human TLR7 SEAP reporter cells; activity range classes; read-out: TLR7 Agonist EC50
T2 construct: host or cells: human HEK-Blue cells (HEK293-derived) co-expressing TLR7 and an NF-kB/AP1-inducible SEAP reporter
T2 sequence (Q9NYK1 27-1049): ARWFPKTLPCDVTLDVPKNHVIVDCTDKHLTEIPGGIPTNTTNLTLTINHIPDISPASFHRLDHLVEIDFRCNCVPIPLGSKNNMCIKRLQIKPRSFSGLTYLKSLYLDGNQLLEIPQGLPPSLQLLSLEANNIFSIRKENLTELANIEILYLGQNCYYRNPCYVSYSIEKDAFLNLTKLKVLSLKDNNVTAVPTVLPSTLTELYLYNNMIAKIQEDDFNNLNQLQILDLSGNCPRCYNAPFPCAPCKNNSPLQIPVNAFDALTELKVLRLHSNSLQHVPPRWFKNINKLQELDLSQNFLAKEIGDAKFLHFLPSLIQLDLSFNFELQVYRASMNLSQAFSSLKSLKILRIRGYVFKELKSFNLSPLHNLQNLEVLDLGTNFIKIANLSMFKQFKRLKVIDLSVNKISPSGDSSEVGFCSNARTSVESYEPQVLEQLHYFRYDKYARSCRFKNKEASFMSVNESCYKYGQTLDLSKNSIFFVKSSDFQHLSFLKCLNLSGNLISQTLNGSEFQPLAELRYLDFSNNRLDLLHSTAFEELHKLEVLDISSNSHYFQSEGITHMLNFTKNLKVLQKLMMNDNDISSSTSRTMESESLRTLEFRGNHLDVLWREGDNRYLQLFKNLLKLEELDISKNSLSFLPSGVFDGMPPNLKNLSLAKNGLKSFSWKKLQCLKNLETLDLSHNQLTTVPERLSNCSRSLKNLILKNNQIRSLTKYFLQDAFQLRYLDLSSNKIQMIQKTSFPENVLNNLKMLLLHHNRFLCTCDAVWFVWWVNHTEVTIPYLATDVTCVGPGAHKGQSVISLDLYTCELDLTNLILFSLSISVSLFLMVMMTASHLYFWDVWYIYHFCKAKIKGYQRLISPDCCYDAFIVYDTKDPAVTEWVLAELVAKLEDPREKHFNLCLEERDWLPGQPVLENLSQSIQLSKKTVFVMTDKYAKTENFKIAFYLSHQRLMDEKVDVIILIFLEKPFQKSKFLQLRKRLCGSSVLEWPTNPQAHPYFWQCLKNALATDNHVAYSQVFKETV
Method in brief: as §1

Nc1cc(NC[C@@H]2CCCNC2)c2ccc(-c3ccn[nH]3)cc2n1 [Compound 326] was tested, and the EC50 (human TLR8) was over 100 µM, the IC50 [1] was 24.7 µM and the EC50 (human TLR7) was over 100 µM.

Nc1cc(NCC2CCNC2)c2ccc(-c3ccn[nH]3)cc2n1 (stereo not drawn) [Compound 327] gave an EC50 (human TLR8) of over 100 µM, an IC50 [1] of 4.66 µM and an EC50 (human TLR7) of over 100 µM.

For Nc1cc(OCCc2ccsc2)c2ccc(-c3cc[nH]n3)cc2n1 [Compound 329, 7-(1H-pyrazol-3-yl)-4-(2-(thiophen-3-yl)ethoxy)quinolin-2-amine], the EC50 (human TLR8) was over 100 µM, the IC50 [1] was 0.67 µM and the EC50 (human TLR7) was over 100 µM.

Work on Nc1cc(OCCc2ccsc2)c2ccc(-c3cccs3)cc2n1 [Compound 330] yielded an EC50 (human TLR8) of over 100 µM, an IC50 [1] of 24.6 µM and an EC50 (human TLR7) of over 100 µM.

For Nc1cc(OCCc2ccsc2)c2ccc(-c3ccsc3)cc2n1 [Compound 331], the EC50 (human TLR8) was over 100 µM, the IC50 [1] was 14.6 µM and the EC50 (human TLR7) was over 100 µM.

Compound Nc1cc(OCC2(CO)COC2)c2ccc(-c3ccsc3)cc2n1 [Compound 332, (3-(((2-amino-7-(thiophen-3-yl)quinolin-4-yl)oxy)methyl)oxetan-3-yl)methanol] has an EC50 (human TLR8) of over 100 µM, an IC50 [1] of 0.65 µM and an EC50 (human TLR7) of over 100 µM.

In the case of Nc1cc(OCC2(CO)COC2)c2ccc(-c3ccn[nH]3)cc2n1 [Compound 333], the EC50 (human TLR8) is reported as over 100 µM, the IC50 [1] is reported as 1.31 µM and the EC50 (human TLR7) is reported as over 100 µM.

With Nc1cc(OCC2(CO)CCC2)c2ccc(-c3cccs3)cc2n1 [Compound 334, (1-(((2-amino-7-(thiophen-2-yl)quinolin-4-yl)oxy)methyl)cyclobutyl)methanol] the EC50 (human TLR8) was over 100 µM, the IC50 [1] was 2.62 µM and the EC50 (human TLR7) was over 100 µM.

For Nc1cc(OCC2(CO)CCC2)c2ccc(-c3ccn[nH]3)cc2n1 [Compound 335], the EC50 (human TLR8) was over 100 µM, the IC50 [1] was 0.63 µM and the EC50 (human TLR7) was over 100 µM.

In the case of Nc1cc(OCC2(CO)CCC2)c2ccc(-c3ccsc3)cc2n1 [Compound 336], the EC50 (human TLR8) is reported as over 100 µM, the IC50 [1] is reported as 2.03 µM and the EC50 (human TLR7) is reported as over 100 µM.

For Nc1cc(OCCCC(F)(F)F)c2ccc(-c3ccsc3)cc2n1 [Compound 337], the EC50 (human TLR8) was over 100 µM, the IC50 [1] was 9.17 µM and the EC50 (human TLR7) was over 100 µM.

For Nc1cc(NCC2(CO)COC2)c2ccc(-c3ccsc3)cc2n1 [Compound 338, (3-(((2-amino-7-(thiophen-3-yl)quinolin-4-yl)amino)methyl)oxetan-3-yl)methanol], the EC50 (human TLR8) was over 100 µM, the IC50 [1] was 3.41 µM and the EC50 (human TLR7) was over 100 µM.

Work on Nc1cc(-c2ccn[nH]2)c2ccc(-c3ccn[nH]3)cc2n1 [Compound 339, 4,7-di(1H-pyrazol-5-yl)quinolin-2-amine, HCl] yielded an EC50 (human TLR8) of over 100 µM, an IC50 [1] of 0.48 µM and an EC50 (human TLR7) of over 100 µM.

Compound Nc1cc(NCCc2cccnn2)c2ccc(-c3cc[nH]n3)cc2n1 [Compound 340, 7-(1H-pyrazol-3-yl)-N4-(2-(pyridazin-3-yl)ethyl)quinolin-2,4-diamine] has an EC50 (human TLR8) of over 100 µM, an IC50 [1] of 0.73 µM and an EC50 (human TLR7) of over 100 µM.

In the case of Nc1cc(NCCc2cccnn2)c2ccc(-c3ccsc3)cc2n1 [Compound 341, N4-(2-(pyridazin-3-yl)ethyl)-7-(thiophen-3-yl)quinolin-2,4-diamine], the EC50 (human TLR8) is reported as over 100 µM, the IC50 [1] is reported as 0.62 µM and the EC50 (human TLR7) is reported as over 100 µM.

Nc1cc(NCCc2cccnn2)c2ccc(-c3cccs3)cc2n1 [Compound 342, N4-(2-(pyridazin-3-yl)ethyl)-7-(thiophen-2-yl)quinolin-2,4-diamine] gave an EC50 (human TLR8) of over 100 µM, an IC50 [1] of 1.1 µM and an EC50 (human TLR7) of over 100 µM.

Nc1cc(NCCc2cccnn2)c2ccc(-n3cccn3)cc2n1 [Compound 343, 7-(1H-pyrazol-1-yl)-N4-(2-(pyridazin-3-yl)ethyl)quinoline-2,4-diamine] showed an EC50 (human TLR8) of over 100 µM, an IC50 [1] of 0.61 µM and an EC50 (human TLR7) of over 100 µM.

Nc1cc(NCCC2CCOCC2)c2ccc(-c3cc[nH]n3)cc2n1 [Compound 344, 7-(1H-pyrazol-3-yl)-N4-(2-(tetrahydro-2H-pyran-4-yl)ethyl)quinoline-2,4-diamine] gave an EC50 (human TLR8) of over 100 µM, an IC50 [1] of 1.11 µM and an EC50 (human TLR7) of over 100 µM.

In the case of Nc1cc(NCCC2CCOCC2)c2ccc(-c3ccsc3)cc2n1 [Compound 345, N4-(2-(tetrahydro-2H-pyran-4-yl)ethyl)-7-(thiophen-3-yl)quinoline-2,4-diamine], the EC50 (human TLR8) is reported as over 100 µM, the IC50 [1] is reported as 1.77 µM and the EC50 (human TLR7) is reported as over 100 µM.

Nc1cc(-c2cn[nH]c2)c2ccc(-c3ccn[nH]3)cc2n1 [Compound 347, 4-(1H-pyrazol-4-yl)-7-(1H-pyrazol-5-yl)quinolin-2-amine] gave an EC50 (human TLR8) of over 100 µM, an IC50 [1] of 1.18 µM and an EC50 (human TLR7) of over 100 µM.

Nc1cc(-c2cnn(CCO)c2)c2ccc(-c3ccn[nH]3)cc2n1 [Compound 348, 2-(4-(2-amino-7-(1H-pyrazol-5-yl)quinolin-4-yl)-1H-pyrazol-1-yl)ethan-1-ol] gave an EC50 (human TLR8) of over 100 µM, an IC50 [1] of 7.26 µM and an EC50 (human TLR7) of over 100 µM.

For Nc1cc(OC[C@H](O)CN2CCOCC2)c2ccc(-c3ccn[nH]3)cc2n1 [Compound 349, (R)-1-((2-amino-7-(1H-pyrazol-5-yl)quinolin-4-yl)oxy)-3-morpholinopropan-2-ol], the EC50 (human TLR8) was over 100 µM, the IC50 [1] was 5.8 µM and the EC50 (human TLR7) was over 100 µM.

Nc1cc(NCCC(=O)N2CCOCC2)c2ccc(-c3ccn[nH]3)cc2n1 [Compound 350, 3-((2-amino-7-(1H-pyrazol-5-yl)quinolin-4-yl)amino)-1-morpholinopropan-1-one] gave an EC50 (human TLR8) of over 100 µM, an IC50 [1] of 4.19 µM and an EC50 (human TLR7) of over 100 µM.
